Data as given in patent US4020060A, “7-[α-Amino- ω-(3,4-methylenedioxyphenyl)acylamido]cephalosporanic acid derivatives” (Richardson-Merrell Inc., priority 1975, dated 1977).
Converted amounts (≈) assume the structure as drawn. Like-named read-outs stand apart in the source and are kept apart here.

Key:
[1] = system: Escherichia coli; experiment: in vitro minimal inhibitory concentration, two-fold serial dilutions in trypticase soy broth; assay type: cell-based; details: 24 hours at 37° C.
Experimental: (§1) The following example illustrates the in vitro activity of the compounds of this invention.
(§2) Two-fold serial dilutions of the test compound are made in trypticase soy broth. A series of tubes of both containing different concentrations of the test compound are inoculated with the particular bacterial culture used for in vitro activity. The inoculated tubes are examined for the inhibition of bacterial growth after 24 hours of incubation at 37° C. The following table summarizes the minimal inhibitory concentration (MIC) for the various bacterial cultures tested with the compound 7-[2-amino-2-(3,4-methylenedioxyphenyl)acetamido]desacetoxycephalosporanicacid.

[2] = system: Streptococcus pyogenes; experiment: as above; assay type: cell-based; details: 24 hours at 37° C.
Experimental: as §1, §2

[3] = system: Diplococcus pneumoniae; experiment: as above; assay type: cell-based; details: Streptococcus pneumoniae, 24 hours at 37° C.
Experimental: as §1, §2

[4] = system: Salmonella schottmuelleri; experiment: as above; assay type: cell-based; details: 24 hours at 37° C.
Experimental: as §1, §2

[5] = system: Staphylococcus aureus; experiment: as above; assay type: cell-based; details: 24 hours at 37° C.
Experimental: as §1, §2

[6] = system: Streptococcus pyogenes; experiment: in vivo protection of mice challenged with a fatal bacterial infection; details: 1 and 4 hours after challenge, read-out: dose required per treatment to protect fifty percent of the infected mice (ED50)
Experimental: (§3) The following example illustrates the in vivo activity of the compounds of this invention.
(§4) Several groups of 10 mice are challenged with a fatal bacterial infection. Various dose levels of the test compound are administered orally or subcutaneously to separate groups of these animals 1 and 4 hours after challenge. After three or four days, depending upon the test organism, the number of survivors are recorded at each dose level and the dose required per treatment to protect fifty percent of the infected mice (ED50) is calculated by the method described by Reed and Muench, Amer. J. Hyg. 27, 493-497 (1938).

[7] = system: Diplococcus pneumoniae; experiment: as above; details: Streptococcus pneumoniae, 1 and 4 hours after challenge, read-out: dose required per treatment to protect fifty percent of the infected mice (ED50)
Experimental: as §3, §4

[8] = system: Salmonella schottmuelleri; experiment: as above; details: sc, subcutaneous, 1 and 4 hours after challenge, read-out: dose required per treatment to protect fifty percent of the infected mice (ED50)
Experimental: as §3, §4

CC1=C(C(=O)O)N2C(=O)C(NC(=O)C(N)c3ccc4c(c3)OCO4)C2SC1 (stereo not shown) [7-[2-Amino-2-(3,4-methylenedioxyphenyl)acetamido] desacetoxycephalosporanic acid] was tested, and the MIC [1] was 50 µg/mL (≈ 128 µM), the MIC [2] was 0.8 µg/mL (≈ 2.04 µM) and the MIC [3] was 3.1 µg/mL (≈ 7.92 µM). The MIC [4] was 50 µg/mL (≈ 128 µM), the MIC [5] was 1.6 µg/mL (≈ 4.09 µM) and the ED50 ([6]; po, per os) was 1 mg/kg. For the same molecule, the ED50 ([6]; sc, subcutaneous) was 0.9 mg/kg, the ED50 ([7]; po, per os) was 45 mg/kg and the ED50 ([7]; sc, subcutaneous) was 40 mg/kg. It also gave an ED50 [8] of 26 mg/kg.
